Experiments:
K-562 cells = test: Cell growth inhibition assay (CellTiter-Glo), K-562; assay type: cell-based, human; settings: K-562, 4 days; for GI50: Homo sapiens, K562, 96 h, half-maximal growth inhibition; for K-562 TGI: total growth inhibition
Method in brief: (§1)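 Growth of each leukemia line in its own serum-containing medium was measured by CellTiter-Glo ATP luminescence after 4 days at 37 °C with 3-fold serial dilutions starting at 10 μM (0.1% DMSO). Readings were corrected for background and day 0, scaled so that vehicle is 100% and medium-only is −100%, and 4-parameter fits gave IC50 and TGI.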

MV-4-11 cells = test: Cell growth inhibition assay (CellTiter-Glo), MV-4-11; assay type: cell-based, human; settings: MV-4-11, 4 days; for GI50: Homo sapiens, MV4-11, 96 h, half-maximal growth inhibition; for MV-4-11 TGI: total growth inhibition
Method in brief: as §1

BRD2 (His-Brd2(60-472)) = BRD2 (His-Brd2(60-472)) (Homo sapiens (Human), UniProt P25440); test: TR-FRET in-vitro binding assay for BRD2; settings: acetyl-histone H4 peptide
THP-1 cells = test: Cell growth inhibition assay (CellTiter-Glo), THP-1; assay type: cell-based, human; settings: THP-1, 4 days; for GI50: Homo sapiens, 96 h, half-maximal growth inhibition; for THP-1 TGI: total growth inhibition
Method in brief: as §1

Chain of BRD2 (His-Brd2(60-472)) (P25440 60-472, species assumed): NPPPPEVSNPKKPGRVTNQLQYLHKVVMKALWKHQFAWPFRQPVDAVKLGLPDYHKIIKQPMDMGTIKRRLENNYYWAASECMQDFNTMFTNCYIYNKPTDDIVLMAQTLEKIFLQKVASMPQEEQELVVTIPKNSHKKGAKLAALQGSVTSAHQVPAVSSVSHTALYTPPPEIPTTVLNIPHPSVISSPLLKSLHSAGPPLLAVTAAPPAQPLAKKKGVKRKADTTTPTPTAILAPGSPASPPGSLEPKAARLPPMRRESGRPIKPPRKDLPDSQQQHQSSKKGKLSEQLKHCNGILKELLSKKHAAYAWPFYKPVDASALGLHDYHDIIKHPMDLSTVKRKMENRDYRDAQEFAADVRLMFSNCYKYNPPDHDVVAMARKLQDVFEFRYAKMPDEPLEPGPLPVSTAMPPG

Which GI50 (K-562 cells) does the source give for `COCCn1nc(C2CC2)c2c1C(c1ccc(Cl)cc1)N(c1cc(C)c(=O)n(C)c1)C2=O` (centres unmarked) [Example 4, 6-(4-chlorophenyl)-3-cyclopropyl-5-(1,5-dimethyl-6-oxo-1,6-dihydropyridin-3-yl)-1-(2-methoxyethyl)-5,6-dihydropyrrolo[3,4-c]pyrazol-4(1H)-one] here?
The GI50 was 109 nM.

What about the “K-562 TGI” value (K-562 cells) of the same compound?
The value was >10000 nM.

What about the GI50 (MV-4-11 cells) of the same compound?
Its GI50 is 20.5 nM.

What about the “MV-4-11 TGI” value (MV-4-11 cells) of the same compound?
The value was 33.6 nM.

What about the IC50 (BRD2 (His-Brd2(60-472))) of the same compound?
The IC50 was 15 nM.

And the GI50 (THP-1 cells)?
Its GI50 is 45.6 nM.

And the “THP-1 TGI” value (THP-1 cells)?
The value was 100 nM.

With `Cc1nn(-c2cccnc2F)c2c1C(=O)N(c1cc(C)c(=O)n(C)c1)C2c1ccc(Cl)cc1` (centres unmarked) [Example 19, 6-(4-chlorophenyl)-5-(1,5-dimethyl-6-oxo-1,6-dihydropyridin-3-yl)-1-(2-fluoropyridin-3-yl)-3-methyl-5,6-dihydropyrrolo[3,4-c]pyrazol-4(1H)-one] as the compound, how does the GI50 (K-562 cells) read?
Its GI50 is 302 nM.

What about the “K-562 TGI” value (K-562 cells) of the same compound?
Its value is >10000 nM.

What about the GI50 (MV-4-11 cells) of the same compound?
Its GI50 is 50.5 nM.

And the “MV-4-11 TGI” value (MV-4-11 cells)?
Its value is 79.8 nM.

What about the IC50 (BRD2 (His-Brd2(60-472))) of the same compound?
Its IC50 is 80 nM.

And the GI50 (THP-1 cells)?
Its GI50 is 91 nM.

What about the “THP-1 TGI” value (THP-1 cells) of the same compound?
The value was 164 nM.

What does the source list for `Cc1nn(C(C)C)c2c1C(=O)N(c1cc(C)c(=O)n(C)c1)C2c1ccc(Cl)cc1` (centres unmarked) [Example 12, 6-(4-chlorophenyl)-5-(1,5-dimethyl-6-oxo-1,6-dihydropyridin-3-yl)-1-isopropyl-3-methyl-5,6-dihydropyrrolo[3,4-c]pyrazol-4(1H)-one]?
GI50 (K-562 cells): 193 nM; K-562 TGI (K-562 cells): >10000 nM; GI50 (MV-4-11 cells): 19.1 nM; MV-4-11 TGI (MV-4-11 cells): 37.4 nM; IC50 (BRD2 (His-Brd2(60-472))): 52 nM; GI50 (THP-1 cells): 62.2 nM; THP-1 TGI (THP-1 cells): 112 nM

What does the source list for `Cc1cc(N2C(=O)c3c(C4CC4)nn(C)c3C2c2ccc(Cl)cc2)cn(C)c1=O` (centres unmarked) [Example 1, 6-(4-chlorophenyl)-3-cyclopropyl-5-(1,5-dimethyl-6-oxo-1,6-dihydropyridin-3-yl)-1-methyl-5,6-dihydropyrrolo[3,4-c]pyrazol-4(1H)-one]?
GI50 (K-562 cells): 141 nM; K-562 TGI (K-562 cells): >10000 nM; GI50 (MV-4-11 cells): 24.6 nM; MV-4-11 TGI (MV-4-11 cells): 41.2 nM; IC50 (BRD2 (His-Brd2(60-472))): 32 nM; GI50 (THP-1 cells): 44.9 nM; THP-1 TGI (THP-1 cells): 104 nM

With `COc1ccc(-n2nc3c(c2C)C(=O)N(c2cc(C)c(=O)n(C)c2)C3c2ccc(Cl)cc2)cn1` (centres unmarked) [Example 20a, 6-(4-chlorophenyl)-5-(1,5-dimethyl-6-oxo-1,6-dihydropyridin-3-yl)-2-(6-methoxypyridin-3-yl)-3-methyl-5,6-dihydropyrrolo[3,4-c]pyrazol-4(2H)-one] as the compound, how does the GI50 (K-562 cells) read?
Its GI50 is 236 nM.

And the “K-562 TGI” value (K-562 cells)?
Its value is >10000 nM.

And the GI50 (MV-4-11 cells)?
The GI50 was 49.6 nM.

And the “MV-4-11 TGI” value (MV-4-11 cells)?
Its value is 65 nM.

What about the IC50 (BRD2 (His-Brd2(60-472))) of the same compound?
Its IC50 is 61 nM.

What about the GI50 (THP-1 cells) of the same compound?
Its GI50 is 104 nM.

What about the “THP-1 TGI” value (THP-1 cells) of the same compound?
The value was 178 nM.

`COc1ncc(-n2nc(C)c3c2C(c2ccc(Cl)cc2)N(c2cc(Cl)c(=O)n(C)c2)C3=O)cn1` (centres unmarked) [Example 8a, 5-(5-chloro-1-methyl-6-oxo-1,6-dihydropyridin-3-yl)-6-(4-chlorophenyl)-1-(2-methoxypyrimidin-5-yl)-3-methyl-5,6-dihydropyrrolo[3,4-c]pyrazol-4(1H)-one] was tested. Which GI50 (K-562 cells) did it give?
The GI50 was 991 nM.

And the “K-562 TGI” value (K-562 cells)?
The value was >10000 nM.

What about the GI50 (MV-4-11 cells) of the same compound?
Its GI50 is 141 nM.

And the “MV-4-11 TGI” value (MV-4-11 cells)?
The value was 294 nM.

And the IC50 (BRD2 (His-Brd2(60-472)))?
The IC50 was 120 nM.

And the GI50 (THP-1 cells)?
The GI50 was 127 nM.

And the “THP-1 TGI” value (THP-1 cells)?
Its value is 493 nM.

For `COc1ccc(-n2nc(C)c3c2C(c2ccc(Cl)cc2)N(c2cc(C)c(=O)n(C)c2)C3=O)cc1` (centres unmarked) [Example 13, 6-(4-chlorophenyl)-5-(1,5-dimethyl-6-oxo-1,6-dihydropyridin-3-yl)-1-(4-methoxyphenyl)-3-methyl-5,6-dihydropyrrolo[3,4-c]pyrazol-4(1H)-one], which GI50 (K-562 cells) is on record?
Its GI50 is 484 nM.

What about the “K-562 TGI” value (K-562 cells) of the same compound?
The value was >10000 nM.

What about the GI50 (MV-4-11 cells) of the same compound?
Its GI50 is 30 nM.

What about the “MV-4-11 TGI” value (MV-4-11 cells) of the same compound?
The value was 56.2 nM.

What about the IC50 (BRD2 (His-Brd2(60-472))) of the same compound?
The IC50 was 97 nM.

And the GI50 (THP-1 cells)?
The GI50 was 69.8 nM.

What about the “THP-1 TGI” value (THP-1 cells) of the same compound?
Its value is 119 nM.

How did the GI50 (K-562 cells) turn out when `Cc1[nH]nc2c1C(=O)N(c1cc(Cl)c(=O)n(C)c1)C2c1ccc(Cl)cc1` (centres unmarked) [Example 6, 5-(5-chloro-1-methyl-6-oxo-1,6-dihydropyridin-3-yl)-6-(4-chlorophenyl)-3-methyl-5,6-dihydropyrrolo[3,4-c]pyrazol-4(2H)-one] was run?
Its GI50 is 558 nM.

And the “K-562 TGI” value (K-562 cells)?
The value was >10000 nM.

What about the GI50 (MV-4-11 cells) of the same compound?
The GI50 was 74.1 nM.

What about the “MV-4-11 TGI” value (MV-4-11 cells) of the same compound?
The value was 134 nM.

And the IC50 (BRD2 (His-Brd2(60-472)))?
Its IC50 is 94 nM.

What about the GI50 (THP-1 cells) of the same compound?
Its GI50 is 189 nM.

What about the “THP-1 TGI” value (THP-1 cells) of the same compound?
The value was 352 nM.

Reference: patent US9714249B2 (Novartis AG, priority 2013, dated 2017)
